In patent US9274101B2 (BIOLOG, Inc., priority 2001, dated 2016):
In brackets after ≈: the same amount, converted by molar mass. Like-named read-outs stand apart in the source and are kept apart here. Blank lines part the entries; values can stand above or below the compound they belong to.

Experiments:
ten strains of E. coli = type: cell-based, Escherichia coli; note: key: +: indicates that the organism tested was capable of utilizing the carbon source listed; −: indicates that the organism tested was not capable of utilizing the carbon source listed; indicates weak positive reactions
IMR-90 cells = experiment: Testing of IMR-90 cells in PM1a testing plates; type: cell-based; details: for color of well: 24 hours of incubation
Procedure: IMR-90 cells were cultured in DMEM in 150 mm diameter petri dishes to near confluence under suitable conditions (e.g., 5% CO2, at 37° C.). The cells were harvested from 19 petri dishes, using the standard trypsin-EDTA procedure to detach the cells (i.e., 5 minute treatment with trypsin-EDTA), pooled and centrifuged at 1000×g for 5 minutes at 2-8° C., and resuspended in HBSS without phenol red. The cells were again centrifuged and resuspended in 24 ml inoculating fluid (IF-h). The cell density as determined by measurement using a Coulter Counter was about 3,000,000 cells/ml. Two-fold serial dilutions were prepared using prewarmed inoculating fluid, by mixing 12 ml of cell suspension with 12 ml IF-h, to produce six suspensions having 3,000,000 cells/ml (undiluted), 1,500,000 cells/ml, 750,000 cells/ml, 375,000 cells/ml, 187,500 cells/ml, and 93,750 cells/ml. A “no cell” control was also prepared, using 12 ml inoculating fluid. Each of the cell suspensions was then immediately inoculated into a PM1a PHENOTYPE MICROARRAY testing panel (Biolog), with about 100 μl of suspension added per well.
After approximately 4.5 hours of incubation at 37° C. in a CO2 incubator, the PHENOTYPE MICROARRAY testing panels were visually examined. […] The amount of background pink color was somewhat varied, depending upon the cell concentration. At the highest cell densities, there was a light pink color in all of the wells.

HL-60 cells = HL-60 cells in PM1 and PM2 plates, MTS/MPMS color, % negative control; type: cell-based, human; details: label = PM1 well (row+column); MTS/MPMS color after 24 hour, OD 490 nm
[1] = tested on: Staphylococcus aureus (ATCC #29213); experiment: MIC determination in MICROPLATE testing plates, saline vs GELRITE inoculant; type: cell-based; details: ATCC29213, 18 h, SF-P plates with resazurin, 35° C.
Procedure: All three antimicrobials were obtained from Sigma. […] Kanamycin and tetracycline were dissolved in sterile water.

[2] = approximately 4.5 hours at 37° C.

SMILES: O=C[C@@H](O)[C@@H](O)[C@H](O)[C@H](O)CO [D-mannose]
carbon source utilization (ten strains of E. coli): + | color of well (IMR-90 cells): distinctly darker clump of red cells | cellular morphology (microscopic) (IMR-90 cells; [2]): the cells looked healthy

SMILES: O=C(CO)[C@H](O)[C@H](O)[C@H](O)CO [D-psicose]
carbon source utilization (ten strains of E. coli): + | cellular morphology (microscopic) (IMR-90 cells; [2]): the cells looked healthy | color of well (carbon source oxidation) (IMR-90 cells; [2]): distinctly more pink than any other well

SMILES: O=C(O)CC(CC(=O)O)C(=O)O [G2]
Response of HL-60 Cells to the Carbon Sources of PM1 (HL-60 cells): 96 % of negative control

MIC ([1]; diluent GELRITE (0.4%)): 16 to 32 µg/mL (≈ 33 to 66 µM) | MIC ([1]; diluent Saline): 16 to 32 µg/mL (≈ 33 to 66 µM)
SMILES: NC[C@H]1O[C@H](O[C@H]2[C@H](O)[C@@H](O[C@H]3O[C@H](CO)[C@@H](O)[C@H](N)[C@H]3O)[C@H](N)C[C@@H]2N)[C@H](O)[C@@H](O)[C@@H]1O [Kanamycin, kanamycin]

SMILES: COC(=O)C(C)=O [Methyl pyruvate]
carbon source utilization (ten strains of E. coli): + | cellular morphology (microscopic) (IMR-90 cells; [2]): the cells were rounded up and appeared to be stressed

MIC ([1]; diluent GELRITE (0.4%)): 0.25 to 1 µg/mL (≈ 0.563 to 2.25 µM) | MIC ([1]; diluent Saline): 0.25 to 2 µg/mL (≈ 0.563 to 4.5 µM)
SMILES: CN(C)[C@@H]1C(O)=C(C(N)=O)C(=O)[C@@]2(O)C(O)=C3C(=O)c4c(O)cccc4[C@@](C)(O)[C@H]3C[C@@H]12 [Tetracycline, tetracycline]

SMILES: O=C([O-])CC(O)C(=O)[O-].[Na+].[Na+] (stereo not shown) [sodium malate]
cellular morphology (microscopic) (IMR-90 cells): the cells were rounded up and appeared to be stressed

SMILES: OC[C@H]1O[C@@H](O[C@H]2[C@H](O)[C@@H](O)[C@@H](O)O[C@@H]2CO)[C@H](O)[C@@H](O)[C@H]1O [α-D-lactose]
carbon source utilization (ten strains of E. coli): + | color of well (IMR-90 cells): distinctly darker clump of red cells
